# Data published in ChEMBL document CHEMBL5579829, “Discovery of a potent CDKs/FLT3 PROTAC with enhanced differentiation and proliferation inhibition for AML” (Eur J Med Chem, 2024).
# Activity calls are given as the source filed them. The rule behind the calls is not given here.
# Legend:
# [1] = target: T1, Protein cereblon/Cyclin-dependent kinase 2 (Homo sapiens, UniProt P24941+Q96SW2); experiment: Protac activity at CRBN/CDK2 in human HL-60 cells assessed as induction of CDK2 degradation at 10 nM measured after 24 hrs in presence of proteasome inhibitor MG132 by Western blot analysis; format: cell-based
# [2] = target: T1, Protein cereblon/Cyclin-dependent kinase 2; experiment: Protac activity at CRBN/CDK2 in human HL-60 cells assessed as induction of CDK2 degradation at 10 nM measured after 24 hrs in presence of CRBN ligand thalidomide by Western blot analysis; format: cell-based
# HL-60 [3] = experiment: Induction of pro-differentiation of human HL-60 cells assessed as CD11b expression at 2 nM measured after 3 days by immunostaining-based flow cytometry (reference value: 8.32 to 10.55%); format: functional; details: time 3 day
# HL-60 [4] = experiment: Induction of pro-differentiation of human HL-60 cells assessed as CD11b expression at 4 nM measured after 3 days by immunostaining-based flow cytometry (reference value: 8.32 to 10.55%); format: functional; details: time 3 day
# HL-60 [5] = experiment: Induction of pro-differentiation of human HL-60 cells assessed as CD11b expression at 2 nM measured after 5 days by immunostaining-based flow cytometry (reference value: 10.08 to 10.33%); format: functional; details: time 5 day
# HL-60 [6] = experiment: Induction of pro-differentiation of human HL-60 cells assessed as increase in CD11b expression at 6.25 nM measured after 3 days by immunostaining-based flow cytometry relative to control; format: functional; details: time 3 day
# MV4-11 = experiment: Antiproliferative activity against human MV4-11 cells measured after 1 to 3 days by CCK-8 assay; format: functional, cell-based
# [7] = target: T1, Protein cereblon/Cyclin-dependent kinase 2; experiment: Protac activity at CRBN/CDK2 in human HL-60 cells assessed as induction of CDK2 degradation measured after 3 days by Western blot analysis; format: cell-based
# [8] = target: T2, Protein cereblon/Cyclin-dependent kinase 6 (Homo sapiens, UniProt Q00534+Q96SW2); experiment: Protac activity at CRBN/CDK6 in human HL-60 cells assessed as induction of CDK6 degradation measured after 3 days by Western blot analysis; format: cell-based
# Target sequence in this assay (Q00534 whole entry): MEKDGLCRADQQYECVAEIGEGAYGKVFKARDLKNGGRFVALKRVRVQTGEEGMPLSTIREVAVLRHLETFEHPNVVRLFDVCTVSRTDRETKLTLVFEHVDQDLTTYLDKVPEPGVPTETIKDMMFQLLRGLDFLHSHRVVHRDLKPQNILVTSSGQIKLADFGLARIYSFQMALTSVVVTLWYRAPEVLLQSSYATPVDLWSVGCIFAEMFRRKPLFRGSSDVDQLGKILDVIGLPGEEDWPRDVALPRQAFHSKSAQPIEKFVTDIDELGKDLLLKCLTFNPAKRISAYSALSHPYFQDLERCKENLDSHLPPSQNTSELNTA
# Target sequence in this assay (Q96SW2 whole entry): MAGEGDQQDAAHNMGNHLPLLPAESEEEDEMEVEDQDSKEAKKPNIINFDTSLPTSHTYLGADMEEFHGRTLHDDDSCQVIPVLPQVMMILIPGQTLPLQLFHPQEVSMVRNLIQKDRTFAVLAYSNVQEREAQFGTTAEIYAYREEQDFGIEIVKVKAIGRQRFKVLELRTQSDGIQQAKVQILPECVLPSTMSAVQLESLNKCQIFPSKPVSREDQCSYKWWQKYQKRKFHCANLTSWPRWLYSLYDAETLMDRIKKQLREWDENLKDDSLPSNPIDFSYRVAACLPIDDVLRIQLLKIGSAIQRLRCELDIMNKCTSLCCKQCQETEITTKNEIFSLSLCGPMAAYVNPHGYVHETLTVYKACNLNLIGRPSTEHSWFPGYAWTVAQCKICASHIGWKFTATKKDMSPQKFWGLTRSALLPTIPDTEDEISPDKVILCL
# [9] = target: Protein cereblon/Receptor-type tyrosine-protein kinase FLT3 (Homo sapiens, UniProt P36888+Q96SW2); experiment: Protac activity at CRBN/FLT3-ITD in human HL-60 cells assessed as induction of FLT3 degradation measured after 3 days by Western blot analysis; format: cell-based
# Chain of Protein cereblon/Receptor-type tyrosine-protein kinase FLT3 (P36888 whole entry, looked up, change not shown): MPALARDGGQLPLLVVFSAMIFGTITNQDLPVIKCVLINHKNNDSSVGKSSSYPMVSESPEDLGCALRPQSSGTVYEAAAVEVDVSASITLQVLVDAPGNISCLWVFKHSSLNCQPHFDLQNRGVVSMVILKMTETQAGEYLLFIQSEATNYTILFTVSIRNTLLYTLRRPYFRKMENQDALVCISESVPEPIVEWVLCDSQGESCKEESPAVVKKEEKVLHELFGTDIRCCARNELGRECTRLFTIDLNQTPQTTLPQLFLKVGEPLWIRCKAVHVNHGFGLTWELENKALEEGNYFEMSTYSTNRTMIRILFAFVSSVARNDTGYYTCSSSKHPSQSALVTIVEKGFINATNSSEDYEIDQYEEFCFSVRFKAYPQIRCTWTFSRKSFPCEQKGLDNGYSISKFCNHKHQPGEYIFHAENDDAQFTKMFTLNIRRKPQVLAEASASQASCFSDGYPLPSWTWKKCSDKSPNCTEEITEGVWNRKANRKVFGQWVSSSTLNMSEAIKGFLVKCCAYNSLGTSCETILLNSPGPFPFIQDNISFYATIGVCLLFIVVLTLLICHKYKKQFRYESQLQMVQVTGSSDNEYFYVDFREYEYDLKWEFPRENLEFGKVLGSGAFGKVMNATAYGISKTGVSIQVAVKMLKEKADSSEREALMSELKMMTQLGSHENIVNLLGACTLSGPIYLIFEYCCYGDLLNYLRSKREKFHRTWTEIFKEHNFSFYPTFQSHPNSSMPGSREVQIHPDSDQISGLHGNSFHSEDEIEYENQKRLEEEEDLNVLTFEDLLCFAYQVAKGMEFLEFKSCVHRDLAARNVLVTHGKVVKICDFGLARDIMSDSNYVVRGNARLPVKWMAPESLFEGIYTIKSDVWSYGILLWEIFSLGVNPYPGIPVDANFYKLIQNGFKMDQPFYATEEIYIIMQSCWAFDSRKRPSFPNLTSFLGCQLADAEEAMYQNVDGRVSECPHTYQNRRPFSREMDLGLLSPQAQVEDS
# Chain of Protein cereblon/Receptor-type tyrosine-protein kinase FLT3 (Q96SW2 whole entry, looked up, change not shown): as the sequence (Q96SW2 whole entry) above
# [10] = target: T3, Protein cereblon/Cyclin-dependent kinase 4 (Homo sapiens, UniProt P11802+Q96SW2); experiment: Protac activity at CRBN/CDK4 in human MV4-11 cells assessed as induction of CDK4 degradation at 2 to 32 nM measured after 3 days by Western blot analysis; format: cell-based; details: dose 2-32 nM, time 3.0 day
# T3 sequence (P11802 2-303 limits assumed): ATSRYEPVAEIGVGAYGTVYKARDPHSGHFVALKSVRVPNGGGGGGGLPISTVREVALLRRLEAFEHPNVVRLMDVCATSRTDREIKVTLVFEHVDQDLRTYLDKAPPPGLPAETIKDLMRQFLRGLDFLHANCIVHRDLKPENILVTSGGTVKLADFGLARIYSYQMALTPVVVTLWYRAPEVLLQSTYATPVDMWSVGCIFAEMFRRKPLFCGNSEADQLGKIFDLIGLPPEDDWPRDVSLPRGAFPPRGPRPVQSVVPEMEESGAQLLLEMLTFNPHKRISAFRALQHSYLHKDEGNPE
# T3 sequence (Q96SW2 whole entry partner): as the sequence (Q96SW2 whole entry) above
# [11] = target: T2, Protein cereblon/Cyclin-dependent kinase 6; experiment: Protac activity at CRBN/CDK6 in human MV4-11 cells assessed as induction of CDK6 degradation at 2 to 32 nM measured after 3 days by Western blot analysis; format: cell-based; details: dose 2-32 nM, time 3.0 day
# Target sequence in this assay (Q00534 whole entry, looked up): as the sequence (Q00534 whole entry) above
# Target sequence in this assay (Q96SW2 whole entry, looked up): as the sequence (Q96SW2 whole entry) above
# [12] = target: Protein cereblon/Cyclin-dependent kinase 9 (Homo sapiens, UniProt P50750+Q96SW2); experiment: Protac activity at CRBN/CDK9 in human MV4-11 cells assessed as induction of CDK9 degradation at 2 to 32 nM measured after 3 days by Western blot analysis; format: cell-based; details: dose 2-32 nM, time 3.0 day
# Chain of Protein cereblon/Cyclin-dependent kinase 9 (P50750 whole entry, looked up): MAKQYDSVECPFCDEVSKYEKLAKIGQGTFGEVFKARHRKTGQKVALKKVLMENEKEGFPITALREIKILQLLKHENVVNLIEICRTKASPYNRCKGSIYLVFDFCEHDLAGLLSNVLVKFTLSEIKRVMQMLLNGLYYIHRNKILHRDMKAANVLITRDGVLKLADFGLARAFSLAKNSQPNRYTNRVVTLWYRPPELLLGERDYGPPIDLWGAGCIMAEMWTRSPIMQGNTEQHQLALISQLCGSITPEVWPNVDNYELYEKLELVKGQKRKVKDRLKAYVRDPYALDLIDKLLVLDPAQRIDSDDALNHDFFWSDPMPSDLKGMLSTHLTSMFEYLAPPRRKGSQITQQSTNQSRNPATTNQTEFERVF
# Chain of Protein cereblon/Cyclin-dependent kinase 9 (Q96SW2 whole entry, looked up): as the sequence (Q96SW2 whole entry) above
# [13] = target: T3, Protein cereblon/Cyclin-dependent kinase 4; experiment: Protac activity at CRBN/CDK4 in human Kasumi 1 cells assessed as induction of CDK4 degradation at 2 to 32 nM measured after 3 days by Western blot analysis; format: cell-based; details: dose 2-32 nM, time 3.0 day
# [14] = system: Protein cereblon/Receptor-type tyrosine-protein kinase FLT3 (Homo sapiens), P36888+Q96SW2 [UNDEFINED MUTATION]; experiment: Protac activity at CRBN/FLT3-ITD mutant in human THP-1 cells assessed as induction of FLT3 degradation at 4 to 64 nM measured after 3 days by Western blot analysis; format: cell-based; details: dose 4-64 nM, time 3.0 day
# Chain of Protein cereblon/Receptor-type tyrosine-protein kinase FLT3 (Homo sapiens), P36888+Q96SW2 [UNDEFINED MUTATION] (P36888 whole entry, looked up, change not shown): as the sequence (P36888 whole entry, looked up, change not shown) above
# Chain of Protein cereblon/Receptor-type tyrosine-protein kinase FLT3 (Homo sapiens), P36888+Q96SW2 [UNDEFINED MUTATION] (Q96SW2 whole entry, looked up, change not shown): as the sequence (Q96SW2 whole entry) above
# [15] = target: T4, Protein cereblon/Cyclin-dependent kinase 1 (Homo sapiens) (UniProt P06493+Q96SW2); experiment: Protac activity at CRBN/CDK1 in human THP-1 cells assessed as induction of CDK1 degradation at 4 to 64 nM measured after 3 days by Western blot analysis; format: cell-based; details: dose 4-64 nM, time 3.0 day
# T4 sequence (P06493 whole entry, looked up): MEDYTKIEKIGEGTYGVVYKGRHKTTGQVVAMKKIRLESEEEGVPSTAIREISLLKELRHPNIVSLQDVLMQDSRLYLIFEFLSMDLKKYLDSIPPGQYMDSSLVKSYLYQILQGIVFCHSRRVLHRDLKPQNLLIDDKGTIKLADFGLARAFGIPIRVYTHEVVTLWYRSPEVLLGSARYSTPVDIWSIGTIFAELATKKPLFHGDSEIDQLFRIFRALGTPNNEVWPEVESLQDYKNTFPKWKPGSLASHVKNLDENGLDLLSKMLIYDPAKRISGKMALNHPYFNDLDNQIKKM
# T4 sequence (Q96SW2 whole entry, looked up): as the sequence (Q96SW2 whole entry) above
# [16] = target: T4, Protein cereblon/Cyclin-dependent kinase 1 (Homo sapiens); experiment: Protac activity at CRBN/CDK1 in human HL-60 cells assessed as induction of CDK1 degradation at 4 to 64 nM measured after 3 days by Western blot analysis; format: cell-based; details: dose 4-64 nM, time 3.0 day
# [17] = target: T5, Protein cereblon/Cyclin-dependent kinase 5 (Homo sapiens) (UniProt Q00535+Q96SW2); experiment: Protac activity at CRBN/CDK5 in human HL-60 cells assessed as induction of CDK5 degradation at 4 to 64 nM measured after 3 days by Western blot analysis; format: cell-based; details: dose 4-64 nM, time 3.0 day
# T5 sequence (Q00535 whole entry, looked up): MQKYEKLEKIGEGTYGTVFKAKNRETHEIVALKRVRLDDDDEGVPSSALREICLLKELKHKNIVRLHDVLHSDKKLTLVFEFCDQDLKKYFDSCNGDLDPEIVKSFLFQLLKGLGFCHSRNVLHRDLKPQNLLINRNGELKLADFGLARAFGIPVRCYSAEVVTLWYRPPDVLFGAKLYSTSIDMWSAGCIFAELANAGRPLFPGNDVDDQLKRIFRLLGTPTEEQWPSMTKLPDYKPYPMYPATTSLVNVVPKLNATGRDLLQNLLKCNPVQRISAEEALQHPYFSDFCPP
# T5 sequence (Q96SW2 whole entry, looked up): as the sequence (Q96SW2 whole entry) above
# [18] = target: T4, Protein cereblon/Cyclin-dependent kinase 1 (Homo sapiens); experiment: Protac activity at CRBN/CDK1 in human MV4-11 cells assessed as induction of CDK1 degradation at 2 to 32 nM measured after 3 days by Western blot analysis; format: cell-based; details: dose 2-32 nM, time 3.0 day
# [19] = target: T4, Protein cereblon/Cyclin-dependent kinase 1 (Homo sapiens); experiment: Protac activity at CRBN/CDK1 in human Kasumi 1 cells assessed as induction of CDK1 degradation at 2 to 32 nM measured after 3 days by Western blot analysis; format: cell-based; details: dose 2-32 nM, time 3.0 day
# [20] = target: T5, Protein cereblon/Cyclin-dependent kinase 5 (Homo sapiens); experiment: Protac activity at CRBN/CDK5 in human Kasumi 1 cells assessed as induction of CDK5 degradation at 2 to 32 nM measured after 3 days by Western blot analysis; format: cell-based; details: dose 2-32 nM, time 3.0 day
smiles,measurement,setting,value
O=C1CCC(N2C(=O)c3ccc(N4CCC(CN5CCN(Cc6ccc(NC(=O)c7n[nH]cc7Nc7ncnc8[nH]ccc78)cc6)CC5)CC4)cc3C2=O)C(=O)N1 (stereo unspecified),Activity,[1],inactive
same,Activity,[2],inactive
same,Activity,HL-60 [3],29.09%
same,Activity,HL-60 [4],43.94%
same,Activity,HL-60 [5],36.57%
same,fold change (FC),HL-60 [6],5.7
same,IC50,MV4-11,2.9 nM
same,DC50,[7],4.74 nM
same,DC50,[8],2.71 nM
same,DC50,[9],5.69 nM
same,Activity,[10],Active
same,Activity,[11],Active
same,Activity,[12],Active
same,Activity,[13],Active
same,Activity,[14],Active
same,Activity,[15],inactive
same,Activity,[16],inactive
same,Activity,[17],inactive
same,Activity,[18],inactive
same,Activity,[19],inactive
same,Activity,[20],inactive
